Measured values: patent US20150105252A1, “SUBSTITUTED PYRAZOLES AS HERBICIDES” (E I DU PONT DE NEMOURS AND COMPANY, priority 2013, published 2015)

Assays:
morningglory [1] = test: Test A preemergence; type: in vivo, Ipomoea spp.; settings: preemergence; for Morningglory plant response rating (0 to 100 scale): 125 g ai/ha, visual injury approx. 10 days after treatment; for Morningglory plant response rating: 500 g ai/ha, visual injury after approx. 10 days, 0 to 100 scale (0 no effect, 100 complete control)
How it was run: (§1)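 Seeds were sown in a loam soil–sand blend and given a directed soil spray preemergence; postemergence plants at 2–10 cm, one- to two-leaf stage, were sprayed with compound in non-phytotoxic solvent with surfactant. After about 10 days in a greenhouse, injury was visually rated against untreated controls (0 = no effect, 100 = complete control).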

velvetleaf [2] = test: Test A preemergence; type: in vivo, Abutilon theophrasti; settings: preemergence; for Velvetleaf plant response rating (0 to 100 scale): 125 g ai/ha, visual injury approx. 10 days after treatment; for Velvetleaf plant response rating: 500 g ai/ha, visual injury after approx. 10 days, 0 to 100 scale (0 no effect, 100 complete control)
How it was run: as §1

corn [3] = test: Test A postemergence; type: in vivo, Zea mays
How it was run: as §1

foxtail, giant [4] = test: Test A preemergence; type: in vivo, Setaria faberii; settings: preemergence; for Foxtail, Giant plant response rating (0 to 100 scale): 125 g ai/ha, visual injury approx. 10 days after treatment; for Foxtail, Giant plant response rating: 500 g ai/ha, visual injury after approx. 10 days, 0 to 100 scale (0 no effect, 100 complete control)
How it was run: as §1

corn [5] = test: Test A preemergence; type: in vivo, Zea mays; settings: preemergence; for Corn plant response rating (0 to 100 scale): 125 g ai/ha, visual injury approx. 10 days after treatment; for Corn plant response rating: 500 g ai/ha, visual injury after approx. 10 days, 0 to 100 scale (0 no effect, 100 complete control)
How it was run: as §1

morningglory [6] = test: Test A postemergence; type: in vivo, Ipomoea spp.
How it was run: as §1

sedge, umbrella = test: Test B flood; type: in vivo, Cyperus difformis; settings: 250 g ai/ha, visual rating on 0 to 100 scale (0 no effect, 100 complete control), 13 to 15 days
How it was run: (§2)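 2-leaf plants; pots flooded 3 cm over soil; compound added to paddy water, depth kept constant. Greenhouse 13–15 d. Visual rating vs controls, 0–100 scale (100 = complete control); dash = no result.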

barnyardgrass [7] = test: Test B flood; type: in vivo, Echinochloa crus-galli; settings: 250 g ai/ha, visual rating on 0 to 100 scale (0 no effect, 100 complete control), 13 to 15 days
How it was run: as §2

crabgrass, large [8] = test: Test A preemergence; type: in vivo, Digitaria sanguinalis; settings: preemergence; for Crabgrass, Large plant response rating (0 to 100 scale): 125 g ai/ha, visual injury approx. 10 days after treatment; for Crabgrass, Large plant response rating: 500 g ai/ha, visual injury after approx. 10 days, 0 to 100 scale (0 no effect, 100 complete control)
How it was run: as §1

barnyardgrass [9] = test: Test A postemergence; type: in vivo, Echinochloa crus-galli
How it was run: as §1

crabgrass, large [10] = test: Test A postemergence; type: in vivo, Digitaria sanguinalis
How it was run: as §1

velvetleaf [11] = test: Test A postemergence; type: in vivo, Abutilon theophrasti
How it was run: as §1

foxtail, giant [12] = test: Test A postemergence; type: in vivo, Setaria faberii
How it was run: as §1

rice = test: Test B flood; type: in vivo, Oryza sativa; settings: 250 g ai/ha, visual rating on 0 to 100 scale (0 no effect, 100 complete control), 13 to 15 days
How it was run: as §2

ducksalad = test: Test B flood; type: in vivo, Heteranthera limosa; settings: 250 g ai/ha, visual rating on 0 to 100 scale (0 no effect, 100 complete control), 13 to 15 days
How it was run: as §2

pigweed [13] = test: Test A preemergence; type: in vivo, Amaranthus retroflexus; settings: preemergence; for Pigweed plant response rating (0 to 100 scale): 125 g ai/ha, visual injury approx. 10 days after treatment; for Pigweed plant response rating: 500 g ai/ha, visual injury after approx. 10 days, 0 to 100 scale (0 no effect, 100 complete control)
How it was run: as §1

pigweed [14] = test: Test A postemergence; type: in vivo, Amaranthus retroflexus
How it was run: as §1

wheat [15] = test: Test A preemergence; type: in vivo, Triticum aestivum; settings: preemergence; for Wheat plant response rating (0 to 100 scale): 125 g ai/ha, visual injury approx. 10 days after treatment; for Wheat plant response rating: 500 g ai/ha, visual injury after approx. 10 days, 0 to 100 scale (0 no effect, 100 complete control)
How it was run: as §1

barnyardgrass [16] = test: Test A preemergence; type: in vivo, Echinochloa crus-galli; settings: preemergence
How it was run: as §1

wheat [17] = test: Test A postemergence; type: in vivo, Triticum aestivum
How it was run: as §1

[18] = Postemergence, 500 g ai/ha, 0 to 100 scale (0 no effect, 100 complete control)
[19] = postemergence, 125 g ai/ha, about 10 days, visual rating on 0 to 100 scale (0 no effect, 100 complete control)
[20] = 125 g ai/ha, visual injury, 0 to 100 scale, approx. 10 days
[21] = 500 g ai/ha, visual injury after approx. 10 days, 0 to 100 scale (0 no effect, 100 complete control)

SMILES	Morningglory plant response rating (0 to 100 scale) (morningglory [1])	Morningglory plant response rating (morningglory [1])	Velvetleaf plant response rating (0 to 100 scale) (velvetleaf [2])	Velvetleaf plant response rating (velvetleaf [2])	Corn plant response rating (corn [3]; [18])	Corn plant response rating (corn [3]; [19])	Foxtail, Giant plant response rating (0 to 100 scale) (foxtail, giant [4])	Foxtail, Giant plant response rating (foxtail, giant [4])	Corn plant response rating (0 to 100 scale) (corn [5])	Corn plant response rating (corn [5])	Morningglory plant response rating (morningglory [6]; [18])	Morningglory plant response rating (morningglory [6]; [19])	Plant response rating, Sedge, Umbrella (sedge, umbrella)	Plant response rating, Barnyardgrass (barnyardgrass [7])	Crabgrass, Large plant response rating (0 to 100 scale) (crabgrass, large [8])	Crabgrass, Large plant response rating (crabgrass, large [8])	Barnyardgrass plant response rating (barnyardgrass [9]; [18])	Barnyardgrass plant response rating (barnyardgrass [9]; [19])	Crabgrass, Large plant response rating (crabgrass, large [10]; [18])	Crabgrass, Large plant response rating (crabgrass, large [10]; [19])	other results
O=C(NCC(F)(F)F)c1cc(Br)n(Cc2cccc(C(F)(F)F)c2)n1 [Compound 161]	0	0	0	0	10	0	0	20	0	0	50	30	0	0	10	70	10	10	30	20	Velvetleaf plant response rating (velvetleaf [11]; [18]): 50; Velvetleaf plant response rating (velvetleaf [11]; [19]): 30; Foxtail, Giant plant response rating (foxtail, giant [12]; [18]): 20; Foxtail, Giant plant response rating (foxtail, giant [12]; [19]): 10; Plant response rating, Rice (rice): 0; Plant response rating, Ducksalad (ducksalad): 0; Pigweed plant response rating (0 to 100 scale) (pigweed [13]): 10; Pigweed plant response rating (pigweed [13]): 80; Pigweed plant response rating (pigweed [14]; [18]): 70; Pigweed plant response rating (pigweed [14]; [19]): 40; Wheat plant response rating (0 to 100 scale) (wheat [15]): 0; Wheat plant response rating (wheat [15]): 0; Barnyardgrass plant response rating (barnyardgrass [16]; [20]): 0; Barnyardgrass plant response rating (barnyardgrass [16]; [21]): 0; Wheat plant response rating (wheat [17]; [18]): 0; Wheat plant response rating (wheat [17]; [19]): 0
CCCCNC(=O)c1cc(Br)n(Cc2cccc(C(F)(F)F)c2)n1 [Compound 162]	0	0	0	0	20	10	0	60	0	0	40	20	0	0	0	30	20	0	20	10	Velvetleaf plant response rating (velvetleaf [11]; [18]): 40; Velvetleaf plant response rating (velvetleaf [11]; [19]): 0; Foxtail, Giant plant response rating (foxtail, giant [12]; [18]): 20; Foxtail, Giant plant response rating (foxtail, giant [12]; [19]): 10; Plant response rating, Rice (rice): 0; Plant response rating, Ducksalad (ducksalad): 0; Pigweed plant response rating (0 to 100 scale) (pigweed [13]): 0; Pigweed plant response rating (pigweed [13]): 0; Pigweed plant response rating (pigweed [14]; [18]): 60; Pigweed plant response rating (pigweed [14]; [19]): 40; Wheat plant response rating (0 to 100 scale) (wheat [15]): 0; Wheat plant response rating (wheat [15]): 0; Barnyardgrass plant response rating (barnyardgrass [16]; [20]): 0; Barnyardgrass plant response rating (barnyardgrass [16]; [21]): 0; Wheat plant response rating (wheat [17]; [18]): 0; Wheat plant response rating (wheat [17]; [19]): 0
COCc1cc(C(=O)NC(C)C)nn1Cc1ccnc(C(F)(F)F)c1 [Compound 166]	100	100	60	100	80	30	100	100	10	90	100	100	80	10	100	100	90	30	80	40	Velvetleaf plant response rating (velvetleaf [11]; [18]): 60; Velvetleaf plant response rating (velvetleaf [11]; [19]): 40; Foxtail, Giant plant response rating (foxtail, giant [12]; [18]): 70; Foxtail, Giant plant response rating (foxtail, giant [12]; [19]): 50; Plant response rating, Rice (rice): 10; Plant response rating, Ducksalad (ducksalad): 85; Pigweed plant response rating (0 to 100 scale) (pigweed [13]): 100; Pigweed plant response rating (pigweed [13]): 100; Pigweed plant response rating (pigweed [14]; [18]): 100; Pigweed plant response rating (pigweed [14]; [19]): 10; Wheat plant response rating (0 to 100 scale) (wheat [15]): 10; Wheat plant response rating (wheat [15]): 90; Barnyardgrass plant response rating (barnyardgrass [16]; [20]): 50; Barnyardgrass plant response rating (barnyardgrass [16]; [21]): 100; Wheat plant response rating (wheat [17]; [18]): 50; Wheat plant response rating (wheat [17]; [19]): 0
COCc1cc(C(=O)NC2CC2)nn1Cc1ccnc(C(F)(F)F)c1 [Compound 167]	50	100	30	100	70	10	90	100	0	40	100	80	70	20	80	100	80	20	80	20	Velvetleaf plant response rating (velvetleaf [11]; [18]): 60; Velvetleaf plant response rating (velvetleaf [11]; [19]): 30; Foxtail, Giant plant response rating (foxtail, giant [12]; [18]): 90; Foxtail, Giant plant response rating (foxtail, giant [12]; [19]): 40; Plant response rating, Rice (rice): 20; Plant response rating, Ducksalad (ducksalad): 80; Pigweed plant response rating (0 to 100 scale) (pigweed [13]): 100; Pigweed plant response rating (pigweed [13]): 100; Pigweed plant response rating (pigweed [14]; [18]): 100; Pigweed plant response rating (pigweed [14]; [19]): 70; Wheat plant response rating (0 to 100 scale) (wheat [15]): 0; Wheat plant response rating (wheat [15]): 50; Barnyardgrass plant response rating (barnyardgrass [16]; [20]): 30; Barnyardgrass plant response rating (barnyardgrass [16]; [21]): 100; Wheat plant response rating (wheat [17]; [18]): 30; Wheat plant response rating (wheat [17]; [19]): 0
O=C(NCC(F)(F)F)c1cc(Cl)n(Cc2cccc(C(F)(F)F)c2)n1 [Compound 170]	0	0	0	0	10	0	0	50	0	0	20	10	0	0	10	70	30	10	30	20	Velvetleaf plant response rating (velvetleaf [11]; [18]): 40; Velvetleaf plant response rating (velvetleaf [11]; [19]): 0; Foxtail, Giant plant response rating (foxtail, giant [12]; [18]): 10; Foxtail, Giant plant response rating (foxtail, giant [12]; [19]): 0; Plant response rating, Rice (rice): 0; Plant response rating, Ducksalad (ducksalad): 0; Pigweed plant response rating (0 to 100 scale) (pigweed [13]): 0; Pigweed plant response rating (pigweed [13]): 60; Pigweed plant response rating (pigweed [14]; [18]): 80; Pigweed plant response rating (pigweed [14]; [19]): 60; Wheat plant response rating (0 to 100 scale) (wheat [15]): 0; Wheat plant response rating (wheat [15]): 0; Barnyardgrass plant response rating (barnyardgrass [16]; [20]): 0; Barnyardgrass plant response rating (barnyardgrass [16]; [21]): 0; Wheat plant response rating (wheat [17]; [18]): 0; Wheat plant response rating (wheat [17]; [19]): 0
